Reference: US20230301885A1, “NOVEL USE” (DSM IP ASSETS B.V., priority 2020, published 2023)

How the values were obtained:
C.simulans = assay: Microbiome balance model, sebaceous skin mixture: C. simulans; assay type: cell-based, Corynebacterium simulans; conditions: 4 h at 37° C.
Experimental: (§1) Thus, in particular the term ‘by not unproportionally affecting the growth of anyone thereof’ refers to a balancing of at least two, preferably all dry skin or sebaceous skin microbes as defined herein in the mutual presence thereof, wherein only small changes in the difference in the (individual) shares of the microbes compared to the corresponding shares of the control are observed. Preferably, the small changes in the (individual) share (after 4 h of incubation at 37° C.) is less than ±15%, in particular less than ±10%, most in particular less than ±7.5%, compared to the control. Said change in the share is calculated as: share of the respective microbe within the group of at least two, preferably all microbes of dry or sebaceous skin in the presence of 1,3-PDO [%] minus share of the same microbe within the same group of microbes in the absence of 1,3-PDO [%], both after 4 h of incubation at 37° C. as illustrated in the example.
(§2) The ‘not unproportionally affected growth’ can also be assessed by determining an overall impact value, by • (1) assessing the impact of the ingredient on the individual microbe (i) and assigning an individual impact value x′(i) to said microbe as outlined below: • [formula] • If x(i) is • a) ≤ 0.1 then an integer x′(i) of 1 is assigned (no impact) • b) >0.1 ≤ 0.5then an integer x′(i) of 2 is assigned (slight impact) • c) > 0.5 then an integer x′(i) of 3 is assigned (significant impact), followed by • (2) assessing the overall effect of the ingredient on the respective microbiome by calculating the overall impact value y with formula (II) • [formula] • with n being the total number of microbes in the respective microbiota, wherein a good balancing is characterized by an overall impact value y of less than 2, preferably less than 1.75, most preferably less than 1.7.
(§3) 5 mL of TSB (Tryptic Say Broth) to which no (Ref.1) or 500 µL of 2 wt.-% of 1,3-propanediol (1,3-PDO) in PBS (Phosphate-buffered saline) have been added. Then this solutions have been inoculated by 500 µL of the respective calibrated mixture of the microbes as outlined below. Directly after inoculation and/or after 4 hours of incubation at 37° C., 100 µL have been taken and plated on an Agar gel petri dish. The microbes have then been counted based on the colony specific morphology and/or size.
(§4) All shares have been rounded.

C. tuberculostearicum = assay: Microbiome balance model, dry skin mixture: C. tuberculostearicum; assay type: cell-based, Corynebacterium tuberculostearicum; conditions: 4 h at 37° C.
Experimental: as §1, §2, §3, §4

M. globosa [1] = assay: Microbiome balance model, dry skin mixture: M. globosa; assay type: cell-based, Malassezia globosa; conditions: 4 h at 37° C.
Experimental: as §1, §2, §3, §4

S. aureus [2] = conditions: known; cited from earlier work
S. mitis [3] = assay: Microbiome balance model, sebaceous skin mixture: S. mitis; assay type: cell-based, Streptococcus mitis; conditions: 4 h at 37° C.
Experimental: as §1, §2, §3, §4

M. globosa [4] = assay: Microbiome balance model, sebaceous skin mixture: M. globosa; assay type: cell-based, Malassezia globosa; conditions: 4 h at 37° C.
Experimental: as §1, §2, §3, §4

S. epidermidis [5] = assay: Microbiome balance model, sebaceous skin mixture: S. epidermidis; assay type: cell-based, Staphylococcus epidermidis
Experimental: as §1, §2, §3, §4

S. oralis = assay: Microbiome balance model, dry skin mixture: S. oralis; assay type: cell-based, Streptococcus oralis; conditions: 4 h at 37° C.
Experimental: as §1, §2, §3, §4

S. aureus [6] = assay: Microbiome balance model, S. epidermidis/S. aureus co-culture: S. aureus; assay type: cell-based, Staphylococcus aureus; conditions: co-culture with S. epidermidis
Experimental: (§5) The term ‘share’ as used herein refers to the share of each (individual) microbe, based on the total number of microbes in the respective group of microbes in % (i.e. the at least two, preferably all dry or sebaceous skin microbes as defined herein, respectively S. epidermidis and ), either before or after inoculation (as indicated). The share is calculated using the colony count of the respective (individual) microbe divided by the sum of the colony counts of all microbes of the respective microbiota * 100%.
as §3, §4

C. acnes = assay: Microbiome balance model, sebaceous skin mixture: C. acnes; assay type: cell-based, Cutibacterium acnes; conditions: 4 h at 37° C.
Experimental: as §1, §2, §3, §4

S. hominis = assay: Microbiome balance model, sebaceous skin mixture: S. hominis; assay type: cell-based, Staphylococcus hominis
Experimental: as §1, §2, §3, §4

S. capitis = assay: Microbiome balance model, sebaceous skin mixture: S. capitis; assay type: cell-based, Staphylococcus capitis; conditions: 4 h at 37° C.
Experimental: as §1, §2, §3, §4

M. luteus = assay: Microbiome balance model, dry skin mixture: M. luteus; assay type: cell-based, Micrococcus luteus; conditions: 4 h at 37° C.
Experimental: as §1, §2, §3, §4

S. epidermidis [7] = assay: Microbiome balance model, S. epidermidis/S. aureus co-culture: S. epidermidis; assay type: cell-based, Staphylococcus epidermidis; conditions: co-culture with S. aureus
Experimental: as §5, §3, §4

P. acnes = assay: Microbiome balance model, dry skin mixture: P. acnes; assay type: cell-based, Cutibacterium acnes; conditions: 4 h at 37° C.
Experimental: as §1, §2, §3, §4

S. mitis [8] = assay: Microbiome balance model, dry skin mixture: S. mitis; assay type: cell-based, Streptococcus mitis; conditions: 4 h at 37° C.
Experimental: as §1, §2, §3, §4

[9] = tested on: microbes of sebaceous skin; assay: Microbiome balance model, sebaceous skin mixture: total of all microbes; assay type: cell-based; conditions: 4 h at 37° C.
Experimental: (§6) Preferably, the difference in total number of said at least two, preferably all microbes, compared to the respective total number in the absence of 1,3-propanediol (i.e. the control), after 4 h of incubation at 37° C., is within a range of ±50%, preferably ±40%, more preferably ±15%, most preferably ±10%.
as §2, §3, §4

E. coli = conditions: known; cited from earlier work
microbes of dry skin = assay: Microbiome balance model, dry skin mixture: total of all microbes; assay type: cell-based; conditions: 4 h at 37° C.
Experimental: as §6, §2, §3, §4

[10] = after 4 hours of incubation at 37° C.
[11] = directly after inoculation, 500 µL of 2 wt.-% in PBS in 5 mL TSB

## 1,3-Propanediol [1,3-PDO]
C.simulans
  C.simulans counts of colony: 627 CFU/ml
  C.simulans share: 6%
  C.simulans valuation, impact value x(i)′: 1^3 (≤ 0.1 then an integer x′(i) of 1 is assigned (no impact))
C. tuberculostearicum
  C. tuberculostearicum change in share vs control: -1%^1
  C. tuberculostearicum counts of colony: 909 CFU/ml
  C. tuberculostearicum share: 4%
  C. tuberculostearicum valuation, impact value x(i)′: 1^3 (≤ 0.1 then an integer x′(i) of 1 is assigned (no impact))
M. globosa [1]
  M. globosa change in share vs control: -6%^1
  M. globosa counts of colony: 3800 CFU/ml
  M. globosa share: 18%
  M. globosa valuation, impact value x(i)′: 1^3 (≤ 0.1 then an integer x′(i) of 1 is assigned (no impact))
S. aureus [2]
  antimicrobial effect on S. aureus: antimicrobial effect
S. mitis [3]
  S. mitis change in share vs control: -2%^1
  S. mitis counts of colony: 1300 CFU/ml
  S. mitis share: 12%
  S. mitis valuation, impact value x(i)′: 2^3 (>0.1 ≤ 0.5then an integer x′(i) of 2 is assigned (slight impact))
M. globosa [4]
  M. globosa change in share vs control: -4%^1
  M. globosa counts of colony: 2900 CFU/ml
  M. globosa share: 27%
  M. globosa valuation, impact value x(i)′: 2^3 (>0.1 ≤ 0.5then an integer x′(i) of 2 is assigned (slight impact))
S. epidermidis [5]
  growth of S. epidermidis compared to the control, in words: increased
S. epidermidis [5]; 4 h at 37° C.
  S. epidermidis change in share vs control: +5%^1
  S. epidermidis counts of colony: 2255 CFU/ml
  S. epidermidis share: 21%
  S. epidermidis valuation, impact value x(i)′: 2^3 (>0.1 ≤ 0.5then an integer x′(i) of 2 is assigned (slight impact))
S. oralis
  S. oralis change in share vs control: +5%^1
  S. oralis counts of colony: 5700 CFU/ml
  S. oralis share: 27%
  S. oralis valuation, impact value x(i)′: 3^3 (> 0.5 then an integer x′(i) of 3 is assigned (significant impact))
S. aureus [6]; [10]
  CSA4h counts of colony of S. aureus: 50 CFU/ml
  CSA4h share of S. aureus: 23%
S. aureus [6]; directly after inoculation
  CSA0 share of S. aureus: 11%
S. aureus [6]; [11]
  CSA0 counts of colony of S. aureus: 30 CFU/ml
C. acnes
  C. acnes change in share vs control: +1%^1
  C. acnes counts of colony: 2664 CFU/ml
  C. acnes share: 25%
  C. acnes valuation, impact value x(i)′: 1^3 (≤ 0.1 then an integer x′(i) of 1 is assigned (no impact))
S. hominis
  growth of S. hominis compared to the control, in words: increased
S. hominis; 4 h at 37° C.
  S. hominis counts of colony: 373 CFU/ml
  S. hominis share: 3%
  S. hominis valuation, impact value x(i)′: 1^3 (≤ 0.1 then an integer x′(i) of 1 is assigned (no impact))
S. capitis
  S. capitis counts of colony: 664 CFU/ml
  S. capitis share: 6%
  S. capitis valuation, impact value x(i)′: 2^3 (>0.1 ≤ 0.5then an integer x′(i) of 2 is assigned (slight impact))
M. luteus
  M. luteus change in share vs control: -1%^1
  M. luteus counts of colony: 873 CFU/ml
  M. luteus share: 4%
  M. luteus valuation, impact value x(i)′: 1^3 (≤ 0.1 then an integer x′(i) of 1 is assigned (no impact))
S. epidermidis [7]; [10]
  CSE4h counts of colony of S. epidermidis: 170 CFU/ml
  CSE4h share of S. epidermidis: 77%
S. epidermidis [7]; directly after inoculation
  CSE0 share of S. epidermidis: 89%
S. epidermidis [7]; [11]
  CSE0 counts of colony of S. epidermidis: 235 CFU/ml
S. epidermidis [7]; t = 0 vs t = 4 h
  share of S. epidermidis, effect in words: significantly altered
P. acnes
  P. acnes change in share vs control: -4%^1
  P. acnes counts of colony: 3200 CFU/ml
  P. acnes share: 15%
  P. acnes valuation, impact value x(i)′: 1^3 (≤ 0.1 then an integer x′(i) of 1 is assigned (no impact))
S. mitis [8]
  S. mitis change in share vs control: +6%^1
  S. mitis counts of colony: 6600 CFU/ml
  S. mitis share: 31%
  S. mitis valuation, impact value x(i)′: 3^3 (> 0.5 then an integer x′(i) of 3 is assigned (significant impact))
[9]
  Change of total CFU/ml vs control: -7%^2
  Total counts of colony: 10783 CFU/ml
  Total share: 100%
  overall impact value y: 1.6^4
E. coli
  antimicrobial effect on E. coli: antimicrobial effect
Microbes of dry skin
  Change of total CFU/ml vs control: +38%^2
  Total counts of colony: 21082 CFU/ml
  overall impact value: 1.7^4
